A short description of series [1]: MTT: Cell Damaging and Protecting Effect Test. As to conditions: rabbit, gastric corpus mucosa cells, final concentration 10^-4 M, smaller value is better, read-out: MTT cell damaging rate. The series is classed as cell-based, rabbit (male Japanese White). An excerpt:
MTT: Cell Damaging and Protecting Effect Test
It is confirmed that there is no toxicity in cell level. Those having a toxicity in cell level are inappropriate as an anti-ulcer drug.
A male Japanese White rabbit (2.5 to 3 kg) was anesthetized to death by Nembutal™ and, immediately thereafter, its stomach was removed. The greater curvature of the stomach was incised so as to remove the stomach contents therefrom. After the mucosal surface was washed with HBSS (Hanks' Balanced Salt Solution), the stomach in ice-cooled HBSS was transferred to a laboratory. Then, after the pyloric antrum was removed, the gastric corpus mucosa was separated by a spatula and then minced into 2 to 3 mm^3 pieces in BME (Basal Medium Eagle). Thereafter, these pieces were shaken at 120 to 130 cycles/minute for 15 minutes at 37° C. in BME 60 ml containing 280 U/ml of dispase and 30 to 50 U/ml of collagenase. Here, the concentration of collagenase was appropriately changed for each lot in view of the state of cells. The pieces were washed twice with EBSS (Earle's Balanced Salt Solution) containing 1 mM of EDTA and then shaken in MEM (Minimum Essential Medium) containing 1 mM of EDTA at 37° C. for 5 minutes. Subsequently, they were shaken in the dispase and collagenase having the same concentrations as those mentioned above for 15 minutes so as to remove the supernatant and then further shaken at 37° C. for 50 to 60 minutes at 120 to 130 cycles/minute. Then, after being washed twice with HBSS, Ham F12 containing 2% of Ultrocer G™ was used to attain the concentration of 1×10^6 cells/ml. Thus formed suspension was dispensed in each well of a 96-well plate by 200 μl. The plate was incubated in the atmosphere composed of 5% CO2 and 95% air at 37° C. for three days so as to attain a confluent state and then subjected to MTT assay.
The sample compound was dissolved in DMSO so as to attain a concentration of 10^-2 M and then diluted with HBSS containing 2% of Ultrocer G™ so as to attain a final concentration of 10^-4 M. To each group, which 8 wells were used for, 10 μl of MTT reagent was added immediately after 100 μl of the medium in each well was exchanged for same volume of the resulting solution of the sample compound. After being incubated in an atmosphere composed of 5% CO2 and 95% air at 37° C. for 4 hours, thus formed solution was centrifuged and then its supernatant was discarded. Subsequently, 100 μl of 100% ethanol was added to the residue so as to dissolve MTT formazan. Then, the absorbance (OD: 570 to 630) was measured by a microplate reader. This method utilizes a phenomenon in which MTT is changed to MTT formazan only by mitochondria of living cells so as to change color.
The cell damaging or cell protecting effect of the sample compound at the final concentration of 10^-4 M was expressed as cell damaging rate (%) as follows:
cell damaging rate (%)=(1-(absorbance in sample group/absorbance in control group))×100
Accordingly, the smaller rate value is better in the cell damage.

For series [2], the system named is isolated gastric fundic gland. Put plainly: CAP: Acid Secretion Inhibition Test In Vitro ([14C]-aminopyrine uptake). In kind it is cell-based, rabbit (male Japanese White). The conditions noted are these: Oryctolagus cuniculus; final concentration 10^-5 M; histamine 10^-5 M; rabbit gastric fundic glands; read-out: CAP acid secretion inhibitory rate. Here is the method:
CAP: Acid Secretion Inhibition Test In Vitro
The acid secretion inhibitory activity in a cell level is studied. It can also be used for studying the mechanism of the effect. […]
ii-a) Preparation of Isolated Gastric Fundus Gland Suspension
First, an isolated gastric fundic gland sample was prepared. Namely, a male Japanese White rabbit (2.5 to 3 kg) was anesthetized to death with Nembutal™ and then the abdomen was incised. Immediately thereafter, the stomach was removed and, after its pyloric and cardiac antrum were severed, incised along its greater curvature into two sheets. The gastric contents adhering to the mucosal surface was washed out with ice-cooled PBS (-) and then carefully washed therein. The gastric wall was spread on a cork board with its mucosal surface facing up and the feed and mucus thereon were completely removed with sterile gauze. The mucosa was separated therefrom by a spatula and then collected in ice-cooled PBS (-). After being washed twice with PBS (-), the mucosa was minced into 2-3 mm^3 pieces by scissors. These pieces were further washed twice with a nutrient solution. […] Into 70 ml of the nutrient solution containing 1 mg/ml of collagenase, minced mucosal pieces were dispersed and intensely stirred in a conical flask with a stirrer at 37° C. for 40 to 60 minutes. During this period, 100% O2 was sprayed on the nutrient solution surface and the pH was appropriately measured such that it was immediately adjusted to pH 7.4, when the value was therebelow, with a base. The nutrient solution was added to the reaction solution so as to attain the total amount of about 200 ml. After being filtered through a mesh, the suspension was divisionally introduced into 50 ml centrifuge tubes and left for 15 minutes such that gastric fundic gland was deposited. The supernatant was repeatedly removed by an aspirator, dispersed in the nutrient solution, and then left such that the gastric fundic gland was washed three times. At this time, without using a pipette, the suspension was alternately introduced into two centrifuge tubes so as to effect dispersion. The number of cells was counted under microscope and adjusted to 1.6×10^6 cells/ml. […]
ii-b) [^14 C]-aminopyrine Uptake Test
Then, [^14 C]-aminopyrine uptake test was performed. After an Eppendorf tube was weighed, 10 μl (final concentration: 10^-5 M) of histamine dissolved in the above-mentioned nutrient solution, 10 μl (final concentration: 10^-5 M) of the test compound dissolved in DMSO, and 10 μl (final concentration: 0.05 μCi/ml) of [^14 C]-aminopyrine diluted with the nutrient solution were introduced therein and then 970 μl of the isolated gastric fundic gland suspension prepared above was added thereto. […] After being centrifuged for 30 minutes, 200 μl of its supernatant was collected into a mini-vial, while the rest was removed by an aspirator. The gland pellet was completely dried as the tube with its lid being opened was kept for one night in a drying oven at 80° C. and then the lid was closed and the weight was determined at room temperature. Then 100 μl of 1N KOH was added thereto and the tube with its lid being closed was treated at 60° C. for 1 to 2 hours so as to dissolve the pellet. Then, the contents thereof were transferred to a mini-vial. Into the mini-vial containing the supernatant or gland pellet, 4 ml of Atomlite™ was added and then the radioactivity was measured by a liquid scintillation counter. Here, after the radioactivity of the gland pellet was corrected by using a sample in which 20 mM of NaSCN was added so as to cancel the hydrogen ion concentration gradient, the integration ratio of aminopyrine specifically trapped by the gland pellet was calculated. This experiment was performed in duplicate. […]
ii-c) Calculation of the Accumulation Rate of Aminopyrine
Here, its principle will be briefly explained. In the isolated gastric fundic gland, acid is accumulated in a space between its secretory tubule and intraglandular cavity.

As for `CC(C)=CCC/C(C)=C/COc1ccc(C(=O)N2CCN(CCNC(=O)c3ccc4c(c3)OCO4)CC2)cc1` [Example 1, 1-(4-geranyloxy)benzoyl-4-[2-(piperonyloylamino)ethyl]piperazine], in series [1], the cytotoxicity at 4 h, 100 µM came out at 21%. For the same compound, the inhibition at 10 µM in series [2] amounted to 100%.
